Data reported in PubChem BioAssay (NCI).
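Values below derive from 48-hour exposures of cells grown in 96-well plates, with endpoints linearly interpolated between the two concentrations bracketing the appropriate inhibition level. TGI: concentration producing complete growth inhibition.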

How the values were obtained:
Assay in all cases: NCI anticancer screen, dose series, 48 h
[1] = test system: 786-0 renal
[2] = test system: A498 renal
[3] = test system: A549 NSCLC
[4] = test system: ACHN renal
[5] = test system: BT-549 breast
[6] = test system: CAKI-1 renal
[7] = test system: CCRF-CEM leukemia
[8] = test system: COLO 205 colon
[9] = test system: DU-145 prostate
[10] = test system: EKVX NSCLC
[11] = test system: HCC-2998 colon
[12] = test system: HCT-116 colon
[13] = test system: HCT-15 colon
[14] = test system: HL-60(TB) leukemia
[15] = test system: HOP-62 NSCLC
[16] = test system: HS 578T breast
[17] = test system: HT29 colon
[18] = test system: IGROV1 ovarian
[19] = test system: K-562 leukemia
[20] = test system: KM12 colon
[21] = test system: LOX IMVI melanoma
[22] = test system: M14 melanoma
[23] = test system: MALME-3M melanoma
[24] = test system: MCF7 breast
[25] = test system: MDA-MB-231 breast
[26] = test system: MDA-MB-435
[27] = test system: MDA-N
[28] = test system: MOLT-4 leukemia
[29] = test system: NCI-H226 lung
[30] = test system: NCI-H23 lung
[31] = test system: NCI-H460 lung
[32] = test system: NCI-H522 lung
[33] = test system: NCI/ADR-RES ovarian
[34] = test system: OVCAR-3 ovarian
[35] = test system: OVCAR-4 ovarian
[36] = test system: OVCAR-5 ovarian
[37] = test system: OVCAR-8 ovarian
[38] = test system: PC-3 prostate
[39] = test system: RPMI-8226 leukemia
[40] = test system: RXF 393 renal
[41] = test system: SF-268 CNS
[42] = test system: SF-295 CNS
[43] = test system: SK-MEL-2 melanoma
[44] = test system: SK-MEL-28 melanoma
[45] = test system: SK-MEL-5 melanoma
[46] = test system: SK-OV-3 ovarian
[47] = test system: SN12C renal
[48] = test system: SNB-19 CNS
[49] = test system: SNB-75 CNS
[50] = test system: SR leukemia
[51] = test system: SW-620 colon
[52] = test system: T-47D breast
[53] = test system: TK-10 renal
[54] = test system: U251 CNS
[55] = test system: UACC-257 melanoma
[56] = test system: UACC-62 melanoma
[57] = test system: UO-31 renal
[58] = test system: HOP-92 NSCLC
[59] = test system: SF-539 CNS

`Nc1nc(N)c(N=Nc2ccc([As](=O)(O)O)cc2)c(=O)[nH]1` was tested. Which TGI [1] did it give?
The TGI was greater than 100 µM.

What about the TGI [2] of the same compound?
Its TGI is greater than 100 µM.

And the TGI [3]?
Its TGI is greater than 100 µM.

What about the TGI [4] of the same compound?
Its TGI is greater than 100 µM.

And the TGI [5]?
Its TGI is greater than 100 µM.

And the TGI [6]?
Its TGI is greater than 100 µM.

And the TGI [7]?
The TGI was greater than 100 µM.

What about the TGI [8] of the same compound?
The TGI was greater than 100 µM.

And the TGI [9]?
The TGI was greater than 100 µM.

And the TGI [10]?
The TGI was greater than 100 µM.

What about the TGI [11] of the same compound?
Its TGI is greater than 100 µM.

And the TGI [12]?
Its TGI is greater than 100 µM.

And the TGI [13]?
The TGI was greater than 100 µM.

What about the TGI [14] of the same compound?
The TGI was greater than 100 µM.

And the TGI [15]?
The TGI was greater than 100 µM.

And the TGI [16]?
Its TGI is greater than 100 µM.

What about the TGI [17] of the same compound?
Its TGI is greater than 100 µM.

What about the TGI [18] of the same compound?
Its TGI is greater than 100 µM.

What about the TGI [19] of the same compound?
Its TGI is greater than 100 µM.

And the TGI [20]?
The TGI was greater than 100 µM.

What about the TGI [21] of the same compound?
Its TGI is greater than 100 µM.

What about the TGI [22] of the same compound?
Its TGI is greater than 100 µM.

What about the TGI [23] of the same compound?
The TGI was greater than 100 µM.

What about the TGI [24] of the same compound?
The TGI was greater than 100 µM.

What about the TGI [25] of the same compound?
Its TGI is greater than 100 µM.

And the TGI [26]?
Its TGI is greater than 100 µM.

And the TGI [27]?
Its TGI is greater than 100 µM.

What about the TGI [28] of the same compound?
The TGI was greater than 100 µM.

What about the TGI [29] of the same compound?
Its TGI is greater than 100 µM.

And the TGI [30]?
Its TGI is greater than 100 µM.

And the TGI [31]?
Its TGI is greater than 100 µM.

What about the TGI [32] of the same compound?
The TGI was greater than 100 µM.

What about the TGI [33] of the same compound?
Its TGI is greater than 100 µM.

And the TGI [34]?
Its TGI is greater than 100 µM.

And the TGI [35]?
Its TGI is greater than 100 µM.

What about the TGI [36] of the same compound?
The TGI was greater than 100 µM.

And the TGI [37]?
Its TGI is greater than 100 µM.

And the TGI [38]?
The TGI was greater than 100 µM.

What about the TGI [39] of the same compound?
Its TGI is greater than 100 µM.

And the TGI [40]?
The TGI was greater than 100 µM.

And the TGI [41]?
Its TGI is greater than 100 µM.

What about the TGI [42] of the same compound?
The TGI was greater than 100 µM.

And the TGI [43]?
The TGI was greater than 100 µM.

What about the TGI [44] of the same compound?
Its TGI is greater than 100 µM.

And the TGI [45]?
The TGI was greater than 100 µM.

What about the TGI [46] of the same compound?
The TGI was greater than 100 µM.

What about the TGI [47] of the same compound?
The TGI was greater than 100 µM.

And the TGI [48]?
The TGI was greater than 100 µM.

What about the TGI [49] of the same compound?
The TGI was greater than 100 µM.

What about the TGI [50] of the same compound?
Its TGI is greater than 100 µM.

What about the TGI [51] of the same compound?
Its TGI is greater than 100 µM.

What about the TGI [52] of the same compound?
Its TGI is greater than 100 µM.

What about the TGI [53] of the same compound?
The TGI was greater than 100 µM.

What about the TGI [54] of the same compound?
Its TGI is greater than 100 µM.

And the TGI [55]?
Its TGI is greater than 100 µM.

What about the TGI [56] of the same compound?
Its TGI is greater than 100 µM.

And the TGI [57]?
Its TGI is greater than 100 µM.

With `O=c1c2c(-c3ccccc3)onc2n(-c2ccccc2)c(=O)n1-c1ccccc1` as the compound, how does the TGI [1] read?
Its TGI is greater than 100 µM.

And the TGI [2]?
The TGI was greater than 100 µM.

And the TGI [3]?
The TGI was greater than 100 µM.

What about the TGI [4] of the same compound?
Its TGI is greater than 100 µM.

And the TGI [5]?
The TGI was 39.5 µM.

What about the TGI [6] of the same compound?
The TGI was greater than 100 µM.

And the TGI [7]?
Its TGI is greater than 100 µM.

What about the TGI [8] of the same compound?
The TGI was greater than 100 µM.

What about the TGI [10] of the same compound?
Its TGI is 59.5 µM.

What about the TGI [11] of the same compound?
The TGI was 33.1 µM.

What about the TGI [12] of the same compound?
The TGI was greater than 100 µM.

And the TGI [13]?
Its TGI is 39.1 µM.

And the TGI [15]?
Its TGI is 54.9 µM.

And the TGI [58]?
Its TGI is greater than 100 µM.

And the TGI [16]?
The TGI was 89.8 µM.

And the TGI [17]?
Its TGI is 45.3 µM.

And the TGI [18]?
Its TGI is 52.1 µM.

And the TGI [19]?
The TGI was greater than 100 µM.

And the TGI [20]?
The TGI was 37 µM.

What about the TGI [21] of the same compound?
The TGI was greater than 100 µM.

What about the TGI [22] of the same compound?
The TGI was 49.7 µM.

And the TGI [23]?
Its TGI is 34.5 µM.

What about the TGI [24] of the same compound?
Its TGI is greater than 100 µM.

And the TGI [25]?
Its TGI is greater than 100 µM.

And the TGI [26]?
Its TGI is greater than 100 µM.

And the TGI [27]?
The TGI was greater than 100 µM.

What about the TGI [28] of the same compound?
Its TGI is greater than 100 µM.

What about the TGI [29] of the same compound?
Its TGI is 71 µM.

What about the TGI [30] of the same compound?
Its TGI is 47.8 µM.

What about the TGI [31] of the same compound?
Its TGI is 36.8 µM.

And the TGI [32]?
The TGI was 33.2 µM.

What about the TGI [33] of the same compound?
Its TGI is 43.2 µM.

What about the TGI [34] of the same compound?
Its TGI is 38.6 µM.

And the TGI [35]?
The TGI was greater than 100 µM.

And the TGI [36]?
Its TGI is 44 µM.

What about the TGI [37] of the same compound?
The TGI was 45.5 µM.

What about the TGI [38] of the same compound?
Its TGI is 82 µM.

And the TGI [39]?
Its TGI is greater than 100 µM.

What about the TGI [40] of the same compound?
The TGI was greater than 100 µM.

What about the TGI [41] of the same compound?
Its TGI is greater than 100 µM.

What about the TGI [42] of the same compound?
The TGI was greater than 100 µM.

What about the TGI [59] of the same compound?
Its TGI is greater than 100 µM.

What about the TGI [43] of the same compound?
Its TGI is 25 µM.

What about the TGI [45] of the same compound?
The TGI was greater than 100 µM.

What about the TGI [46] of the same compound?
The TGI was greater than 100 µM.

And the TGI [47]?
Its TGI is greater than 100 µM.

And the TGI [48]?
The TGI was greater than 100 µM.

And the TGI [49]?
The TGI was 84.2 µM.

And the TGI [50]?
The TGI was greater than 100 µM.

What about the TGI [51] of the same compound?
The TGI was greater than 100 µM.

And the TGI [52]?
Its TGI is greater than 100 µM.

And the TGI [53]?
Its TGI is 58.2 µM.

And the TGI [54]?
The TGI was greater than 100 µM.

And the TGI [55]?
Its TGI is 53 µM.

And the TGI [56]?
The TGI was 32 µM.

And the TGI [57]?
Its TGI is 30.4 µM.
